Patent US5523460A, “4-fluorobiphenyl derivatives” (Fujirebio Inc., priority 1993, dated 1996)
Like-named read-outs stand apart in the source and are kept apart here.

Assays:
HMG-CoA Reductase = molecular target: T1, HMG-CoA Reductase (Rattus norvegicus, UniProt P51639); assay: biochemical; details: method of J. Biol. Chem. Vol. 234, page 2835 (1959); read-out: HMG-CoA Reductase Inhibitory Activity IC50
T1 sequence (P51639 1-887): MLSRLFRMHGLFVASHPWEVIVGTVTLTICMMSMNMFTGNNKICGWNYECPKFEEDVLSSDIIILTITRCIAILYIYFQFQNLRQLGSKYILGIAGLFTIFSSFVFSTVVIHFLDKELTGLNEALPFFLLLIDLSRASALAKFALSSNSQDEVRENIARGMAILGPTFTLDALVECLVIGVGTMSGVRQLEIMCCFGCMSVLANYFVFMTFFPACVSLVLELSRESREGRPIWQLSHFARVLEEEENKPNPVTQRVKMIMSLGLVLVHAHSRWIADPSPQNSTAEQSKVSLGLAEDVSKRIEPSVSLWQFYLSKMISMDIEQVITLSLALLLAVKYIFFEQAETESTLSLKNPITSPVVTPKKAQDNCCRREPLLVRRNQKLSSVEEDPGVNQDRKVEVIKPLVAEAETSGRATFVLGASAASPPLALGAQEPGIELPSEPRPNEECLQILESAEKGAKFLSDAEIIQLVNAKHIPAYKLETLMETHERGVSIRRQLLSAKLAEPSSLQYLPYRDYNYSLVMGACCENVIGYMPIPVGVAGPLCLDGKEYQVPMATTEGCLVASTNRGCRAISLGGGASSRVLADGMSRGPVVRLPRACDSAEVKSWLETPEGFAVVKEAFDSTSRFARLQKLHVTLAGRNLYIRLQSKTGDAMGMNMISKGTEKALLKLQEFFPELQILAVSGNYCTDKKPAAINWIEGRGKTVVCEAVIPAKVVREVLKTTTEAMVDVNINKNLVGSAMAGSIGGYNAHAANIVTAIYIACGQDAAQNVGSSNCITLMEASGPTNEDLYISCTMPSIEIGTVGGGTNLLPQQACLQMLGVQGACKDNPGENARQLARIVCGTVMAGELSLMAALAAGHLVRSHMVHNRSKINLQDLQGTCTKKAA
Experimental: Test 1Determination of Inhibitory Activity on HMG-CoA Reductase
The inhibitory effect on HMG-CoA Reductase of each of representative examples of the 4-fluorobiphenyl derivatives prepared in the above-discussed examples was determined in accordance with the method described in Journal of Biological Chemistry (J. Biol. Chem.) Vol. 234, page 2835 (1959), and IC50 values were obtained.

biosynthesis of sterol = assay: Determination of Inhibition of Sterol Synthesis (liver, after oral administration to rats); type: in vivo, SD rats; details: Rattus norvegicus, 2 h, read-out: Inhibition of Sterol Synthesis
Experimental: Test 2 Determination of Inhibition of Sterol Synthesis
Representative compounds (0.3 mg/5ml/kg) suspended in a 5% arabic gum solution were orally given to SD rats weighing 150 to 200 g. One hour later, ^14 C-acetic acid (100 μCi/kg) was intraperitoneally injected, and furthermore one hour later, liver was removed to determine the inhibitory activity of each of the compounds on the biosynthesis of sterol in accordance with the method described in European Journal of Biochemistry (Eur. J. Biochem.) Vol.77, page 31 (1977).

Compound	IC50 (HMG-CoA Reductase) [nM]	inhibition in vivo at 0.3 mg/kg (biosynthesis of sterol; po) [%]	inhibition in vivo at 0.3 mg/kg (biosynthesis of sterol; 0.3 mg/5ml/kg oral in 5% arabic gum, SD rats, 14C-acetic acid (100 μCi/kg) i.p. 1 h later, liver removed 1 h after that) [%]
COc1cc(C(C)C)c(/C=C/C(O)CC(O)CC(=O)O)c(-c2ccc(F)cc2)c1OC (centres unmarked)	5.43	71	
COCCOc1c(OC)cc(C(C)C)c(/C=C/C(O)CC(O)CC(=O)O)c1-c1ccc(F)cc1 (centres unmarked)	25.6	60	
COCCOCCOc1c(OC)cc(C(C)C)c(/C=C/C(O)CC(O)CC(=O)O)c1-c1ccc(F)cc1 (centres unmarked)	9.43	69	
COCCOc1cc(C(C)C)c(/C=C/C(O)CC(O)CC(=O)O)c(-c2ccc(F)cc2)c1OC (centres unmarked)	16.1	71	
COc1c(OCCO)cc(C(C)C)c(/C=C/C(O)CC(O)CC(=O)O)c1-c1ccc(F)cc1 (centres unmarked)	20.4	61	
COCCOCCOc1cc(C(C)C)c(/C=C/C(O)CC(O)CC(=O)O)c(-c2ccc(F)cc2)c1OC (centres unmarked)	26.4	62	
COc1c(C)cc(C(C)C)c(/C=C/C(O)CC(O)CC(=O)O)c1-c1ccc(F)cc1 (centres unmarked)	16.6	65	
COc1c(Cl)cc(C(C)C)c(/C=C/C(O)CC(O)CC(=O)O)c1-c1ccc(F)cc1 (centres unmarked)	18.7	71	
CCC(C)(C)C(=O)O[C@H]1C[C@@H](C)C=C2C=C[C@H](C)[C@H](CC[C@@H]3C[C@@H](O)CC(=O)O3)[C@H]21 [Simvastatin, reference compound]			24
